Test results as given in ChEMBL document CHEMBL1641420, “Discovery of pyrazolo[1,5-a]pyrimidine-based CHK1 inhibitors: a template-based approach--part 1” (Bioorg Med Chem Lett, 2011).

Legend:
[1] = molecular target: T1, Serine/threonine-protein kinase Chk1 (Homo sapiens, UniProt O14757); assay: Inhibition of recombinant His-CHK1 expressed in baculovirus after 2 hrs by scintillation proximity assay
T1 sequence (O14757 whole entry): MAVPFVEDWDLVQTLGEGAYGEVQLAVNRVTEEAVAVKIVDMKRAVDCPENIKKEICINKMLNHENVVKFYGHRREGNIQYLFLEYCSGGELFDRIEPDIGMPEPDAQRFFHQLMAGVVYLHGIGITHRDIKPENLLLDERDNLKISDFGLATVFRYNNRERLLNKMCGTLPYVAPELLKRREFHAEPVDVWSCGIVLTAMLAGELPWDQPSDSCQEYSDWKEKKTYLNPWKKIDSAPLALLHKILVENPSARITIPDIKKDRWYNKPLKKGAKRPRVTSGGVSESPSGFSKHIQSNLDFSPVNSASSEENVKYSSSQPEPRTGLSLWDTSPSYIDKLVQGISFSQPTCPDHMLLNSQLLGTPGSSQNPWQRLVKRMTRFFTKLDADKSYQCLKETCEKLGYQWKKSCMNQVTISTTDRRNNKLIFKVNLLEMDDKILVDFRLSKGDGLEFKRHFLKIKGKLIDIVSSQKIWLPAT

[2] = molecular target: Cyclin-dependent kinase 2/cyclin A (Homo sapiens, UniProt P24941); assay: Inhibition of CDK2/cyclin A; assay type: protein-complex assay
[3] = Selectivity ratio, ratio of IC50 for CDK2/cyclin A to IC50 for recombinant His-CHK1

| SMILES | IC50 [1] [µM] | IC50 [2] [µM] | Ratio IC50 [3] |
| --- | --- | --- | --- |
| CCOC(=O)c1cnn2c(N)cc(C3CCCNC3)nc12 (configuration not stated) | > 50 | – | – |
| Nc1cc(C2CCCNC2)nc2ccnn12 (configuration not stated) | 36 | 7.8 | – |
| Nc1cc(C2CCCNC2)nc2c(-c3ccns3)cnn12 (configuration not stated) | 0.07 | 0.79 | – |
| CCOC(=O)c1ccc(Nc2cc(C3CCCNC3)nc3c(-c4cnn(C)c4)cnn23)cc1 (configuration not stated) | 0.051 | > 50 | – |
| Cc1cc(Nc2cc(C3CCCNC3)nc3c(-c4cnn(C)c4)cnn23)sn1 (configuration not stated) | – | 40 | – |
| Cn1cc(-c2cnn3c(NC4CCNCC4)cc(C4CCCNC4)nc23)cn1 (configuration not stated) | 6.8 | > 50 | – |
| Nc1cc(C2CCCNC2)nc2c(-c3ccoc3)cnn12 (configuration not stated) | 0.82 | – | – |
| Cc1cc(Nc2cc(C3CCCNC3)nc3c(-c4cnn(C)c4)cnn23)no1 (configuration not stated) | 0.021 | > 50 | – |
| Cc1nc2cc(Nc3cc(C4CCCNC4)nc4c(-c5cnn(C)c5)cnn34)ccc2s1 (configuration not stated) | 0.61 | > 50 | – |
| Nc1cc(C2CCCNC2)nc2c(-c3cscn3)cnn12 (configuration not stated) | > 50 | – | – |
| Nc1cc(C2CCCNC2)nc2c(-c3cnccn3)cnn12 (configuration not stated) | 0.29 | 1.2 | – |
| CCn1nccc1Nc1cc(C2CCCNC2)nc2c(-c3cnn(C)c3)cnn12 (configuration not stated) | 34 | – | – |
| Cn1cc(-c2cnn3c(NC(C)(C)C)cc(C4CCCNC4)nc23)cn1 (configuration not stated) | 5 | > 50 | – |
| Cn1cc(-c2cnn3c(Nc4ccccn4)cc(C4CCCNC4)nc23)cn1 (configuration not stated) | 0.028 | > 50 | – |
| [O-][n+]1cccc(CNc2cc(-c3ccccc3F)nc3c(Br)cnn23)c1 | > 50 | 0.013 | – |
| Cn1cc(-c2cnn3c(NCCO)cc(C4CCCNC4)nc23)cn1 (configuration not stated) | 0.86 | > 50 | – |
| Cn1cc(-c2cnn3c(Nc4nccs4)cc(C4CCCNC4)nc23)cn1 (configuration not stated) | 0.028 | > 50 | – |
| Cn1cc(-c2cnn3c(Nc4ccccc4)cc(C4CCCNC4)nc23)cn1 (configuration not stated) | 0.087 | > 50 | – |
| N#Cc1cnn2c(N)cc(C3CCCNC3)nc12 (configuration not stated) | 2.1 | 0.81 | – |
| Cn1cc(-c2cnn3c(NCc4ccccc4)cc(C4CCCNC4)nc23)cn1 (configuration not stated) | 1 | – | – |

| SMILES | IC50 [1] [µM] | IC50 [2] [µM] | Ratio IC50 [3] |
| --- | --- | --- | --- |
| Nc1cc(-c2ccccc2)nc2c(Br)cnn12 | 2.9 | 0.25 | – |
| Nc1cc(C2CCCNC2)nc2c(-c3cccs3)cnn12 (configuration not stated) | 1.3 | 0.69 | – |
| C/C=C/c1cnn2c(N)cc(C3CCCNC3)nc12 (configuration not stated) | 5.1 | 0.71 | – |
| Nc1cc(C2CCCNC2)nc2c(-c3ccn[nH]3)cnn12 (configuration not stated) | 2 | 2.2 | – |
| Cn1cc(-c2cnn3c(NCc4cccnc4)cc(C4CCCNC4)nc23)cn1 (configuration not stated) | 0.41 | > 50 | – |
| Cn1cc(-c2cnn3c(Nc4ccc5c(c4)OCO5)cc(C4CCCNC4)nc23)cn1 (configuration not stated) | 0.39 | > 50 | – |
| Nc1cc(C2CCCNC2)nc2c(Br)cnn12 (configuration not stated) | 1.08 | 0.086 | – |
| Nc1cc(C2CCCNC2)nc2c(-c3cccc(O)c3)cnn12 (configuration not stated) | 1.7 | 0.64 | – |
| Nc1cc(C2CCCNC2)nc2c(-c3ccccc3)cnn12 (configuration not stated) | 4.5 | 4.6 | – |
| Cn1cc(-c2cnn3c(Nc4nncs4)cc(C4CCCNC4)nc23)cn1 (configuration not stated) | 2.2 | > 50 | – |
| CCNc1cc(C2CCCNC2)nc2c(-c3cnn(C)c3)cnn12 (configuration not stated) | 0.48 | > 50 | – |
| CC#Cc1cnn2c(N)cc(C3CCCNC3)nc12 (configuration not stated) | 18 | 0.08 | – |
| CNc1cc(C2CCCNC2)nc2c(-c3cnn(C)c3)cnn12 (configuration not stated) | 0.14 | > 50 | – |
| Nc1cc(C2CCCNC2)nc2c(-c3cccnc3)cnn12 (configuration not stated) | 0.54 | – | – |
| Nc1cc(C2CCCNC2)nc2c(-c3cncnc3)cnn12 (configuration not stated) | 0.28 | 5.4 | – |
| Cn1cc(-c2cnn3c(NC4CCCCC4)cc(C4CCCNC4)nc23)cn1 (configuration not stated) | 1.5 | > 50 | – |
| Nc1cc(C2CCCNC2)nc2c(-c3ccsc3)cnn12 (configuration not stated) | 1.1 | 0.59 | – |
| Cn1cc(-c2cnn3c(N)cc(C4CCCNC4)nc23)cn1 (configuration not stated) | 0.06 | 6.1 | 100 |
| CCc1cnn2c(N)cc(C3CCCNC3)nc12 (configuration not stated) | 9.4 | 0.27 | – |
